The text below walks through data of patent US4575560A, “Insecticidal diaminoguanidine hydrazone compounds” (American Cyanamid Company, priority 1985, dated 1986).

Structures are written as SMILES.

Experiment [1] concerns Tobacco Budworm 3rd Instar. The experiment can be described thus: Tobacco budworm secondary test, third-instar larvae on treated cotton cotyledons. The experiment is classed as in vivo, Heliothis virescens (Fabricus).
Another experiment has as its system Southern Armyworm. Nature of the experiment: Southern armyworm test, third-instar larvae on treated Sieva lima bean leaves. Format: in vivo, Spodoptera eridania (Cramer). The note with it: third-instar larvae. The protocol: Test formulations and procedures used for evaluation are as follows:
A. 100 mg of the test material is weighed, placed in a funnel over a 113 g narrow-mouth bottle, rinsed into the bottle with a 35 mL scoop of acetone, followed by a 35 mL scoop of water and another 35 mL scoop of acetone to yield 1000 ppm in 65% acetone. If the material is not soluble, it is broken up with a glass rod and used as a suspension.
B. This stock solution ("A") is used to make 300 ppm solutions or suspensions by pipetting 30 mL of "A" into a bottle containing 70 mL of 50% acetone to yield 300 ppm. Further dilutions in 50% acetone are made as required.
C. Tests requiring 10 ppm acetone solutions: 1 mL of "A" is pipetted into 99 mL of acetone to yield 10 ppm. Additional dilutions are made using 50% acetone as required.
Southern Armyworm--Spodoptera eridania (Cramer)
A Sieva lima bean plant with just the primary leaves expanded to 1.91 cm is dipped for three seconds with agitation in the "A" solution of 1000 ppm and set in the hood to dry. Following this, one leaf is placed in a 9 cm petri dish which has a moist filter paper in the bottom and 10 third-instar armyworm larvae about 1 cm long. This dish is covered and held at 80° F., and 50% r.h. After two days, mortality counts and estimates of the amount of feeding are made. Compounds showing partial kill and/or inhibition of feeding are held for an extra day for further observations.
All compounds showing activity as defined above are retested, using the second leaf on the bean plant, after an interval of seven days from original treatment, as an assay of residual activity.

Consider `N=C(NN=Cc1ccc(OC(F)(F)C(F)F)cc1)NN=Cc1ccc(C(F)(F)F)cc1` [CF3 / HCF2 CF2 O / B, 1-{[p-(1,1,2,2-tetrafluoroethoxy)benzylidene]amino}-3-{[p-(trifluoromethyl)benzylidene]amino}guanidine], for which the “Mortality Rating Tobacco Budworm 3rd Instar” value in experiment [1] (1000 ppm) was 3 (36-45%). Also, the “Mortality Rating Southern Armyworm” value in the experiment with Southern Armyworm (100 ppm) and with Southern Armyworm (1000 ppm) was 9 (100%) each time.

As for `N=C(NN=Cc1ccc(C(F)(F)F)cc1)N(N=Cc1ccc(C(F)(F)F)cc1)C(=O)OCCBr` [CF3 / CF3 / BrCH2 CH2], the “Mortality Rating Tobacco Budworm 3rd Instar” value in experiment [1] (1000 ppm) is on record as 0 (No effect). The entries for the “Mortality Rating Southern Armyworm” value in the experiment with Southern Armyworm (10 ppm), in the experiment with Southern Armyworm (100 ppm) and with Southern Armyworm (1000 ppm) were 0 (No effect), 0 (No effect) and 9 (100%), respectively.

In the case of `N=C(NN=Cc1ccc(Br)cc1)NN=Cc1ccc(OC(F)(F)C(F)F)cc1` [Br / HCF2 CF2 O / B], the “Mortality Rating Tobacco Budworm 3rd Instar” value in experiment [1] (1000 ppm) was 0 (No effect). The “reduced feeding (R) Tobacco Budworm 3rd Instar” value (shortened to “reduced feeding”) in experiment [1] (1000 ppm) is on record as “R”. Besides, the “Mortality Rating Southern Armyworm” value in the experiment with Southern Armyworm (100 ppm) and with Southern Armyworm (1000 ppm) was 9 (100%) in each case.

For `N=C(NN=Cc1ccc(OC(F)(F)F)cc1)N(N=Cc1ccc(OC(F)(F)F)cc1)C(=O)OCC(Cl)(Cl)Cl` [CF3 O / CF3 O / Cl3 CCH2], the “Mortality Rating Tobacco Budworm 3rd Instar” value in experiment [1] (100 ppm) was 1 (11-25%); in experiment [1] (1000 ppm), 0 (No effect). For the same molecule, the “reduced feeding” value in experiment [1] (100 ppm) and in experiment [1] (1000 ppm) was “R” in each case. Besides, the “Mortality Rating Southern Armyworm” value in the experiment on Southern Armyworm (10 ppm), in the experiment with Southern Armyworm (100 ppm) and with Southern Armyworm (1000 ppm) was 9 (100%) throughout.

`CCC(C)OC(=O)N(N=Cc1ccc(OC(F)(F)F)cc1)C(=N)NN=Cc1ccc(OC(F)(F)F)cc1` (stereo not drawn) [CF3 O / CF3 O / drawing 55]: the figures for the “Mortality Rating Tobacco Budworm 3rd Instar” value in experiment [1] (100 ppm) and in experiment [1] (1000 ppm) were 0 (No effect) and 8 (86-99%), respectively. Also, the “reduced feeding” value in experiment [1] (100 ppm) was “R”. For the same molecule, the entries for the “Mortality Rating Southern Armyworm” value in the experiment on Southern Armyworm (10 ppm), with Southern Armyworm (100 ppm) and in the experiment with Southern Armyworm (1000 ppm) were 0 (No effect), 9 (100%) and 9 (100%), respectively.

Consider `N=C(NN=Cc1ccc(OCC(F)(F)F)cc1)NN=Cc1ccc(OCC(F)(F)F)cc1` [CF3 CH2 / S], for which the “Mortality Rating Tobacco Budworm 3rd Instar” value in experiment [1] (100 ppm) and in experiment [1] (1000 ppm) was 0 (No effect) throughout. Moreover, the “reduced feeding” value in experiment [1] (1000 ppm) is “R”. For the same molecule, the “Mortality Rating Southern Armyworm” value with Southern Armyworm (10 ppm) was 6 (66-75%); in the experiment with Southern Armyworm (100 ppm), 8 (86-99%); in the experiment on Southern Armyworm (1000 ppm), 9 (100%).

With `C=CCOC(=O)N(N=Cc1ccc(OC(F)(F)F)cc1)C(=N)NN=Cc1ccc(OC(F)(F)F)cc1` [CF3 O / CF3 O / CH2CHCH2], the “Mortality Rating Tobacco Budworm 3rd Instar” value in experiment [1] (1000 ppm) is 0 (No effect). Also, in experiment [1] (1000 ppm), the “reduced feeding” value is listed as “R”. The entries for the “Mortality Rating Southern Armyworm” value in the experiment on Southern Armyworm (10 ppm), in the experiment on Southern Armyworm (100 ppm) and in the experiment on Southern Armyworm (1000 ppm) were 6 (66-75%), 8 (86-99%) and 9 (100%), respectively.

In the case of `N=C(NN=Cc1ccc(OC(F)(F)C(F)Cl)cc1)NN=Cc1ccc(OC(F)(F)C(F)Cl)cc1` (stereo not drawn) [drawing 44 / S], the “Mortality Rating Tobacco Budworm 3rd Instar” value is 0 (No effect) in experiment [1] (10 ppm), 0 (No effect) in experiment [1] (100 ppm) and 9 (100%) in experiment [1] (1000 ppm). Besides, the “reduced feeding” value in experiment [1] (10 ppm), in experiment [1] (100 ppm) and in experiment [1] (1000 ppm) was “R” throughout. The “Mortality Rating Southern Armyworm” value with Southern Armyworm (10 ppm) is on record as 6 (66-75%); in the experiment with Southern Armyworm (100 ppm), 9 (100%); in the experiment on Southern Armyworm (1000 ppm) it was 9 (100%).

Consider `CCOC(=O)N(N=Cc1ccc(OC(F)F)cc1)C(=N)NN=Cc1ccc(OC(F)F)cc1` [HCF2 O / HCF2 O / C2 H5], for which the “Mortality Rating Tobacco Budworm 3rd Instar” value in experiment [1] (1000 ppm) is on record as 2 (26-35%). For the same molecule, the “Mortality Rating Southern Armyworm” value in the experiment with Southern Armyworm (10 ppm) is on record as 0 (No effect); with Southern Armyworm (100 ppm), 9 (100%); with Southern Armyworm (1000 ppm), 9 (100%).
